Data published in ChEMBL document CHEMBL3507680, “University of Dundee, Gates Library screen for HepG2 cell viability”.

Experiment: Human HepG2 cell viability assay in 384 well format
Type: toxicity, cell-based
Parameters: dose 125 nL, time 70.5 hour; concentration not given beside the values
Details: HepG2 cells, read-out: Inhibition

SMILES | cytotoxicity at 70.5 h [%]
CCn1c(=O)n(CC)c2cc(S(N)(=O)=O)ccc21 | -2.33
CC(C)(C)NC(=O)COc1ccc(CNCc2ccccn2)cc1 | 25.3
O=C1CC(N2CCN(c3ccccc3O)CC2)C(=O)N1Cc1cccs1 (stereo unspecified) | -12.2
O=C(COCC(=O)N(c1ccccc1)c1ccccc1)N1CCCC1 | -3.7
Cc1c(Br)cnn1C(C)C(=O)Nc1nncs1 (stereo unspecified) | -14.2
CSc1ncn(-c2nc(N(C)C)nc(N(C)C)n2)n1 | 36.4
CCc1ccc(NC(=O)Nc2c(O)oc3ccccc3c2=O)cc1 | -9.4
CC(C)CNC(=O)CN(Cc1ccc(F)cc1)S(C)(=O)=O | -5.67
CN(C)c1ccc(CC2CCN(c3cnccn3)CC2)nn1 | -7.84
O=C(C1CCOCC1)N1CCOCC(Cc2ncccn2)C1 (stereo unspecified) | -10.5
Cc1nc(C(=O)N2CCOC(Cc3ccccc3)C2)co1 (stereo unspecified) | 23
CN(c1ccccc1)c1ccc(CC2CCCN(CCO)C2)nn1 (stereo unspecified) | 30.2
Cc1nonc1CN(C)Cc1cnn(-c2ccc(F)cc2)c1 | 0.663
Fc1ccc(F)c(CN2CCC(c3cnccn3)CC2)c1 | -5.3
Nc1nccnc1CC1CCCN(Cc2c[nH]c3ccccc23)C1 (stereo unspecified) | -9.09
Cc1c(C(=O)N[C@@H]2CC[C@@H](N3CCCC3)[C@@H]2O)[nH]c2ccc(F)cc12 | 6.16
c1cc(CNc2ncc(-c3cnccn3)c(C3CC3)n2)ccn1 | -2.59
Cc1cc(-c2ccc(=O)n(C3CCN(S(C)(=O)=O)CC3)n2)c(C)o1 | 17.2
CC(C)OC(=O)[C@@H]1CCN(C(=O)c2ccccn2)[C@@H]1c1ccc(F)cc1 | -6.08
O=C(O)[C@@H]1CCN(C(=O)c2ccccn2)[C@@H]1c1ccc(F)cc1 | -7.21
O=C(O)[C@@H]1CCN(C(=O)Cc2ccccn2)[C@@H]1c1ccc(F)cc1 | -7.95
c1cc(CNc2ncc(-c3cnccn3)c([C@@H]3CCCO3)n2)ccn1 | -5.57
COc1ccc(-c2nccc(C3CCCN3C)n2)cc1 (stereo unspecified) | -2.22
CN1CCC(c2cc(CCO)ncn2)C1 (stereo unspecified) | 1.56

SMILES | cytotoxicity at 70.5 h [%]
CN1CCCC1c1ccnc(-c2ccccc2)n1 (stereo unspecified) | -2.81
CC(C)c1ncc(CN2CCCC2c2[nH]ncc2C(=O)N(C)C)cn1 (stereo unspecified) | -5.06
O=C(CC1CCN(CCc2ccccc2)CC1)N1CCCOCC1 | -1.73
CCN(CC)C(=O)CN1CCCC(c2nc(C)c3c(n2)N(C)CCC3)C1 (stereo unspecified) | 0.707
CN1CCCC1c1ccnc(-c2ccccn2)n1 (stereo unspecified) | -1.8
CN(C)c1nc(O)cc(C2CCN(C(=O)Cc3ccccn3)C2)n1 (stereo unspecified) | 1.91
COc1ccccc1C1(O)CCCN(C(=O)c2cnc(SC)nc2)C1 (stereo unspecified) | -3.73
CC(C)c1nc(O)c2nnn(C[C@H]3CCCN(Cc4cccs4)C3)c2n1 | 32.6
CC(C)c1nc(O)c2nnn(C[C@@H]3CCCN(Cc4ccsc4)C3)c2n1 | -2.22
CN(CCc1cn[nH]c1)C(=O)CCc1ccc(Cl)cc1 | -0.186
COc1ccc(N2CCN(C(=O)OC(C)(C)C)C(C(=O)O)C2)cc1 (stereo unspecified) | -0.702
Cc1nc(C2CCCN(C(C)C)C2)sc1Br (stereo unspecified) | -4.14
NC1(CN2CCOCC2)CCCCC1 | -2.02
CC(C)(C)OC(=O)N1CCN(c2ccc(F)cc2)CC1C(=O)O (stereo unspecified) | -1.03
O=C(N[C@@H]1CC[C@@H](N2CCCC2)[C@@H]1O)c1cc2cccc(F)c2[nH]1 | -9.84
Cc1n[nH]c(C)c1CCC(=O)N[C@@H]1CCC[C@@H](Oc2ccccc2)[C@@H]1O | 21.6
Cc1noc(C)c1CCC(=O)N[C@@H]1CC[C@@H](Oc2cccnc2)[C@@H]1O | -3.66
O=C(c1cc(C2CCCCC2)no1)N1C[C@H]2C[C@H](O)C[C@H]2C1 | -4.06
Cc1noc(C2(C)CCCN(C(=O)C(C)C)C2)n1 (stereo unspecified) | -0.687
Nc1ccc(CC2CCCN(Cc3c[nH]cn3)C2)nn1 (stereo unspecified) | -2.3
CN(C)C(=O)C1(C)CN(Cc2cn(C)c3ccc(F)cc23)CCO1 (stereo unspecified) | 9.86
COCCNC(=O)c1cc(C)nc(C2CCN(C)CC2)n1 | -3.41
COc1ncc(CN2CCCC2c2[nH]ncc2C(=O)N(C)C)cn1 (stereo unspecified) | 23.2
O=C(NCC1(O)COCCN(Cc2cccc(O)c2)C1)c1cnccn1 (stereo unspecified) | -3.85

SMILES | cytotoxicity at 70.5 h [%]
CNC(=O)CN1CCOC(c2cccc(N)n2)C1 (stereo unspecified) | -1.41
CC(=O)NCc1nccnc1C1CCN(C(=O)c2cc[nH]n2)CC1 | -6.68
Cc1nccc(N2CCCC(C)(c3[nH]ncc3C(N)=O)C2)n1 (stereo unspecified) | -4.04
CN(C)c1cccc(C2CCN(c3ncccn3)CC2)n1 | -3.49
NC(=O)c1cnc(-c2ccccc2)nc1CCNC(=O)CN1CCCC1 | 9.13
COCCN1CCCC1(C)c1nc(C)cc(N)n1 (stereo unspecified) | 0.23
O=C(C1CC1)N1CCC(O)(CN2CCN(c3ccccc3)CC2)C1 (stereo unspecified) | -4.63
Cc1cc(-c2ccccc2C(=O)O)nc(C2CCCN2S(C)(=O)=O)n1 (stereo unspecified) | -1.81
Cc1nn(C)cc1CN(Cc1ccccn1)Cc1ccccc1Cl | 4.5
Cc1cc(C)nc(C2CCCN2C(=O)c2coc(C)n2)n1 (stereo unspecified) | 23
Cc1cc(CN2CCc3nc(-c4ccncc4)nc(O)c3CC2)c(C)s1 | -7.8
CC(C)C(C(N)=O)c1cccc(Cl)c1 (stereo unspecified) | -3.86
Cn1cc(S(=O)(=O)Nc2ccc3[nH]c(C4CCC4)nc3c2)cn1 | 0.665
CNC(=O)C(c1cccc(Cl)c1)C(C)C (stereo unspecified) | 17.1
Cc1ccccc1-n1ccnc1S(=O)(=O)Cc1nsc(N(C)C)n1 | -11
Cc1ccnc2c1NC(=O)CN2C(=O)CCC(F)(F)F | -6.32
CNC(=O)Cc1ccc(NC(=O)NCC(C)c2ncc(C)s2)cc1 (stereo unspecified) | -12.5
CCOCCOC(C)C(=O)Nc1nccn1Cc1ccccc1 (stereo unspecified) | -15
Cc1ccc(C)c(CC(=O)NC2CCC(N3C(=O)CCC3=O)CC2)c1 (stereo unspecified) | -1.42
O=C(NCCn1ccnc1)C1COCC(=O)N1Cc1ccccc1 (stereo unspecified) | 9.74
CC(C#N)NS(=O)(=O)c1cccc(C(C)C)c1 (stereo unspecified) | -15.4
CCC1CCCCN1C(=O)Cn1cnc(C#N)n1 (stereo unspecified) | -4.5
CC(C)OCCS(=O)(=O)N1CCN(Cc2cccn2C)CC1 | -8.85
CN(C)S(=O)(=O)N(C)C(c1cccnc1)c1ccc(F)c(F)c1 (stereo unspecified) | 14.4

SMILES | cytotoxicity at 70.5 h [%]
COCC(=O)N1CCN(C(C)C(=O)NC(C)C)CC1 (stereo unspecified) | 5.85
CC(C)(C)c1cc(NC(=O)CN(Cc2ccco2)Cc2cccs2)on1 | 4.01
CC(C)(C)c1cc(NC(=O)CN(Cc2cccs2)Cc2cccs2)on1 | -8.34
CCOC(=O)N1CCC(C(=O)Nc2nnc(C(F)(F)F)[nH]2)CC1 | 5.31
CC(=O)N1CCC(C(=O)Nc2nnc(C(F)(F)F)[nH]2)CC1 | -8.53
CN(CCCOc1ccccc1)S(=O)(=O)N1CCOCC1 | -12.8
CN(CCOc1ccc(F)cc1)S(=O)(=O)N1CCOCC1 | -9.68
CC(=O)NCCNC(=O)c1sccc1Br | -16.2
CCOc1nnc(CN2CCC(c3cc4ccccc4[nH]3)CC2)s1 | -5.08
CC(c1ccco1)N(C(=O)CNc1ccc(C#N)cc1)C1CC1 (stereo unspecified) | 4.38
CC(C1CC1)N(C(=O)CNc1ccc(C#N)cc1)C1CC1 (stereo unspecified) | -6.5
c1nc2c(c(N3CCOC(Cn4cncn4)C3)n1)CCC2 (stereo unspecified) | -7.61
c1nc2c(c(N3CCCC(Cn4cncn4)C3)n1)CCC2 (stereo unspecified) | -7.36
O=C(NCCNC(=O)C1CC1)c1sccc1Br | -6.03
CC(C)COCCC(=O)Nc1cc(-n2nnnc2C2CC2)ccc1F | -8.14
CCOc1ccccc1CCNC(=O)NCC(O)c1ccsc1 (stereo unspecified) | -0.583
CC(C)C(C#N)N1CCN(C(=O)c2cc(-c3ccccn3)no2)CC1 (stereo unspecified) | 3.13
CCCS(=O)(=O)NC(=O)c1ccc(-n2nc(C)cc2C)cc1 | -6.42
CN1CCOC(C(=O)Nc2nc(-c3ccccc3F)n[nH]2)C1 (stereo unspecified) | -6.97
c1cnn(CC2CN(c3ncnc4c3CCC4)CCO2)c1 (stereo unspecified) | -9.89
CC(NC(=O)c1ccoc1)C(=O)N(C)Cc1ccc(O)cc1 (stereo unspecified) | 3.58
Cc1cnn(C2CN(C(C)c3nc(-c4ccccc4)no3)C2)c1 (stereo unspecified) | -8.84
COc1ccnc(N(C)Cc2csc(C)n2)n1 | -6.22
CCC1CCCCCN1C(=O)c1coc(S(=O)(=O)N(C)C)c1 (stereo unspecified) | -12.3

SMILES | cytotoxicity at 70.5 h [%]
N#Cc1c(CN2CCCCC2Cn2cncn2)cn2ccccc12 (stereo unspecified) | 5.14
COc1ccc(COCC(O)CSc2ccc(NC(C)=O)cc2)cc1 (stereo unspecified) | -10.5
CC(=O)Nc1ccc(SCC(O)COCc2ccco2)cc1 (stereo unspecified) | -12
O=C(NCc1ccnc(OCC(F)(F)F)c1)NCC1CCCO1 (stereo unspecified) | 0.67
CC(CN1CCOCC1)NC(=O)Nc1cccnc1-n1cccn1 (stereo unspecified) | -14
O=C(NCCN1CCCCCC1=O)Nc1cccnc1-n1cccn1 | 23.5
CC(=O)NCCNC(=O)c1nc(C2CC2)n(-c2ccccc2Cl)n1 | -13.6
CNC(=O)Cn1ccc2ccc(NC(=O)C(C)CSC)cc21 (stereo unspecified) | -5.03
Cn1cc(CCC(=O)NCc2ccccc2OC(C)(C)C)cn1 | 2.39
Cc1nc(CCCC(=O)Nc2cccc(N3CCNC3=O)c2)cs1 | 0.608
O=C(NCc1ccnc(OCC(F)(F)F)c1)NCC1COCCO1 (stereo unspecified) | -6.7
COc1ccc(-n2cc(CNC(=O)c3ccc[nH]3)nn2)cc1 | -2.18
O=S(=O)(c1cncc(F)c1)N1CCSC2(CCCCC2)C1 | -10.2
Cc1ccc(C2CN(CCCC#N)CCO2)c(C)c1 (stereo unspecified) | -2.64
Cn1cc(CNCC(c2ccc(Cl)cc2)n2cccn2)cn1 (stereo unspecified) | -5.62
COCCNC(=O)c1sc2ccccc2c1C1CCC(CN)CC1 (stereo unspecified) | -1.66
Cc1nc(NCc2cccc(F)c2)cc(C2CCNCC2)n1 | 0.802
CC(C)NC(=O)c1sc2ccccc2c1[C@H]1CC[C@H](CN)CC1 | 38.7
c1nc(CN2CCCC(Cc3ccc(NC4CCCC4)nn3)C2)c[nH]1 (stereo unspecified) | 0.181
Cc1ccccc1OC1CCN(CC(=O)Nc2cnn(C)c2C)CC1 | -2.68
